Test results as given in paper PMC3748936 (Chembiochem : a European journal of chemical biology, 2012).

Assays:
[1] = target: T1, E. coli GMPS (Escherichia coli, UniProt P04079); assay: GMPS inhibition of D-XMP amination, UV-Vis analysis; assay type: biochemical
T1 sequence (P04079 1-525): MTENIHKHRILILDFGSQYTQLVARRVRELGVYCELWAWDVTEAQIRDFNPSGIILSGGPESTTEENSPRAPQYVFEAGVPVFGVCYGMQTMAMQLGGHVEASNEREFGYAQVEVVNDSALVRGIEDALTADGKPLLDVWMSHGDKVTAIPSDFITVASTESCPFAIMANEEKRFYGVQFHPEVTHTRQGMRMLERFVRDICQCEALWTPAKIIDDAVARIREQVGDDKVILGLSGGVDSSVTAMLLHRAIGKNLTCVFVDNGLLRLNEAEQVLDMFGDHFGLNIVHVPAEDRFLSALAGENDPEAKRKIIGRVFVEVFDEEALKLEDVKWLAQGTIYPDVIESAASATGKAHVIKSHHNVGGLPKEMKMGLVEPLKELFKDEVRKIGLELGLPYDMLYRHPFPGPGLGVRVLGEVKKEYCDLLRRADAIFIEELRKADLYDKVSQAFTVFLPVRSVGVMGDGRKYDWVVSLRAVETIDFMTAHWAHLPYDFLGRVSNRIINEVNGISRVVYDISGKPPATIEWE

[2] = target: T1, E. coli GMPS; assay: HPLC-based assay of GMPS enzymatic reaction products; assay type: biochemical
[3] = target: T1, E. coli GMPS; assay: Continuous UV spectrophotometric assay of GMPS; assay type: biochemical; conditions: UV-Vis analysis, triplicate, average +/- S.D.
[4] = target: GMPS; conditions: previous report; cited from earlier work
[5] = tested on: GMPS isolated from rat Walker sarcoma cells; conditions: cited from earlier work
[6] = target: T1, E. coli GMPS; conditions: previous report; cited from earlier work
[7] = substrate: O=c1[nH]c(=O)c2ncn([C@@H]3O[C@H](COP(=O)(O)O)[C@@H](O)[C@H]3O)c2[nH]1; assay: Continuous UV spectrophotometric assay of GMPS; assay type: biochemical, E. coli; conditions: other: UV-Vis analysis; triplicate, average +/- S.D.

With `O=c1[nH]c(=O)c2ncn(C3OC(CO)C(O)C3O)c2[nH]1` [L-Xanthosine, L-xanthosine] the “GMPS inhibition (in words)” value [1] was “neither molecule inhibited GMPS”.

In the case of `O=c1[nH]c(=O)c2ncn([C@H]3O[C@@H](COP(=O)(O)O)[C@H](O)[C@@H]3O)c2[nH]1` [L-XMP], the “Km fold higher than the natural enantiomer D-XMP” value ([2]; HPLC analysis) is reported as ~ 10 fold, the “kcat fold difference in turnover number compared to D-XMP” value ([2]; HPLC analysis) is reported as 15,000 fold and the “kcat/Km (specific activity) fold decrease from the natural enantiomer” value ([2]; HPLC analysis) is reported as 140,000 fold. For the same molecule, the “conversion of substrate by GMPS (HPLC peak, MS confirmed)” value ([2]; incubation with GMPS and NH4OAc) was “converted to L-GMP by GMPS”, the kcat ([3]; substrate turnover to GMP) was 3.1 (± 0.7) × 10^−6 s^−1 and the Km [3] was 330 ± 105 µM. The “fold more potent than decoyinine inhibition against E. coli GMPS” value ([1]; from Ki values) was ~7 fold.

For `C=C1O[C@@](CO)(n2cnc3c(N)ncnc32)[C@H](O)[C@@H]1O` [Decoyinine, decoyinine], the Ki [1] is listed as 54.1 ± 14.5 µM and the Ki [4] is listed as 26 µM.

With `OC[C@H]1O[C@@H](n2cnc3c(O)nc(O)nc32)[C@H](O)[C@@H]1O` [D-Xanthosine, D-xanthosine] the “GMPS inhibition (in words)” value [1] was “neither molecule inhibited GMPS”.

For `NC(=O)c1ncn([C@@H]2O[C@H](CO)[C@@H](O)[C@H]2O)c1O` [Mizoribine], the Ki [1] is given as 1.8 ± 0.7 µM and the Ki [5] is given as 10 µM.

In the case of `O=c1[nH]c(=O)c2ncn([C@@H]3O[C@H](COP(=O)(O)O)[C@@H](O)[C@H]3O)c2[nH]1` [D-XMP, xanthosine 5′-monophosphate], the “kcat (turnover number)” value [6] is listed as 9.4×10^–2 s^–1.

B1: E. coli GMPS (Escherichia coli K-12) (protein)
chain: T1 sequence (P04079 1-525)
In the case of B1, the Km [7] is reported as 24.9 ± 6.6 µM, the kcat [7] is reported as 0.043 ± 0.007 s⁻¹ and the kcat/Km [7] is reported as 1700 M⁻¹ s⁻¹.
